From PubChem BioAssay AID256 (DTP/NCI, 2004)
Toxic doses and inconclusive results are not listed. Rule for the calls: active = survival T/C of 150% or more; inactive = T/C below 125% in these data.

Tested on: CD2F1 mice, L1210 leukemia ip, survival T/C
Assay: NCI In Vivo Anticancer Drug Screen. Data for tumor model L1210 Leukemia (intraperitoneal) in CD2F1 (CDF1) mice
Details: higher = longer survival
Description: The antitumor activity of compounds was measured in mice bearing transplantable tumors. Survival or tumor size were measured and the results are expressed as the measurement made in the treated group (T) divided by the measurement made in the vehicle treated control group (C). The tumor model used in this assay is L1210 Leukemia (intraperitoneal) in CD2F1 (CDF1) mice

[1] = endpoint: mean survival time, dose: 25.0 mg/kg/injection, schedule: Q01DX009 (ip), vehicle: saline with Tween-80
[2] = endpoint: mean survival time, dose: 50.0 mg/kg/injection, schedule: Q01DX009 (ip), vehicle: saline with Tween-80
[3] = endpoint: mean survival time, dose: 100.0 mg/kg/injection, schedule: Q01DX009 (ip), vehicle: saline with Tween-80
[4] = endpoint: mean survival time, dose: 100.0 mg/kg/injection, schedule: Q04DX003 (ip), vehicle: saline with Tween-80
[5] = endpoint: mean survival time, dose: 200.0 mg/kg/injection, schedule: Q04DX003 (ip), vehicle: saline with Tween-80
[6] = endpoint: mean survival time, dose: 400.0 mg/kg/injection, schedule: Q04DX003 (ip), vehicle: saline with Tween-80
[7] = endpoint: mean survival time, dose: 200.0 mg/kg/injection, schedule: Q01DX009 (ip), vehicle: saline with Tween-80
[8] = endpoint: mean survival time, dose: 25.0 mg/kg/injection, schedule: Q04DX003 (ip), vehicle: saline with Tween-80
[9] = endpoint: mean survival time, dose: 50.0 mg/kg/injection, schedule: Q04DX003 (ip), vehicle: saline with Tween-80
[10] = endpoint: mean survival time, dose: 400.0 mg/kg/injection, schedule: Q01DX009 (ip), vehicle: saline with Tween-80

Measured: T/C

COc1cc(Cl)c(CCBr)cc1OC
inactive: endpoint: mean survival time, dose: 50.0 mg/kg/injection, schedule: Q01DX009 (ip), vehicle: Klucel (hydroxypropylcellulose) (HPC) 104 % of control | endpoint: mean survival time, dose: 100.0 mg/kg/injection, schedule: Q01DX009 (ip), vehicle: Klucel (hydroxypropylcellulose) (HPC) 89 % of control | endpoint: mean survival time, dose: 200.0 mg/kg/injection, schedule: Q01DX009 (ip), vehicle: Klucel (hydroxypropylcellulose) (HPC) 96 % of control

O=C(O)CSc1nc2ccccc2s1
inactive: [1] 96 % of control | [2] 95 % of control | [3] 97 % of control | [4] 93 % of control | [5] 94 % of control | [6] 96 % of control

CCOC(=O)N1C(=O)C2C3CCC(O3)C2C1=O (centres undefined)
inactive: endpoint: mean survival time, dose: 25.0 mg/kg/injection, schedule: Q04DX002 (ip), vehicle: saline with Tween-80 104 % of control | endpoint: mean survival time, dose: 50.0 mg/kg/injection, schedule: Q04DX002 (ip), vehicle: saline with Tween-80 90 % of control | endpoint: mean survival time, dose: 100.0 mg/kg/injection, schedule: Q04DX002 (ip), vehicle: saline with Tween-80 109 % of control

COc1cc(OC)c(NC(=O)Oc2ccc3ccccc3c2)cc1Cl
inactive: [2] 94 % of control | [3] 94 % of control | [7] 97 % of control

Cc1cc(NC(=O)NCCOc2ccc(N3C(N)=NC(N)=NC3(C)C)cc2Cl)ccc1S(=O)(=O)F
inactive: endpoint: mean survival time, dose: 12.5 mg/kg/injection, schedule: Q04DX003 (ip), vehicle: saline with Tween-80 107 % of control | [8] 102 % of control | [9] 91 % of control

CC1CCC(NC2=NCCO2)C(C)C1 (centres undefined)
inactive: endpoint: mean survival time, dose: 12.5 mg/kg/injection, schedule: Q01DX009 (ip), vehicle: saline with Tween-80 105 % of control | [1] 112 % of control | [8] 101 % of control | [2] 101 % of control | [9] 101 % of control

CCN(N=O)C(=O)N(Cc1ccccc1)Cc1ccccc1
inactive: endpoint: mean survival time, dose: 25.0 mg/kg/injection, schedule: Q01DX009 (ip), vehicle: other 94 % of control | endpoint: mean survival time, dose: 50.0 mg/kg/injection, schedule: Q01DX009 (ip), vehicle: other 94 % of control | endpoint: mean survival time, dose: 100.0 mg/kg/injection, schedule: Q01DX009 (ip), vehicle: other 96 % of control | endpoint: mean survival time, dose: 200.0 mg/kg/injection, schedule: Q01DX009 (ip), vehicle: other 96 % of control

COc1cc(-c2ccc3cc(OC)c(OC)c(OC)c3c2)cc(OC)c1OC
inactive: [3] 96 % of control | [7] 98 % of control | [10] 96 % of control

Cc1cccc(C)c1N
inactive: endpoint: mean survival time, dose: 100.0 mg/kg/injection, schedule: Q01DX001 (ip), vehicle: saline with Tween-80 96 % of control | endpoint: mean survival time, dose: 200.0 mg/kg/injection, schedule: Q01DX001 (ip), vehicle: saline with Tween-80 94 % of control | endpoint: mean survival time, dose: 400.0 mg/kg/injection, schedule: Q01DX001 (ip), vehicle: saline with Tween-80 91 % of control

CSC(N)=Nc1ccc(C(=O)O)cc1
inactive: [4] 100 % of control | [5] 94 % of control | [6] 94 % of control

O=CC1C(=O)Nc2ccccc21 (centres undefined)
inactive: [2] 96 % of control | [3] 96 % of control | [7] 104 % of control

C(#Cc1ccccn1)c1ccccn1.[Pt].c1ccc([PH+](c2ccccc2)c2ccccc2)cc1.c1ccc([PH+](c2ccccc2)c2ccccc2)cc1
inactive: endpoint: median survival time, dose: 3.13 mg/kg/injection, schedule: Q04DX003 (ip), vehicle: distilled water + Tween-80 104 % of control | endpoint: median survival time, dose: 6.25 mg/kg/injection, schedule: Q04DX003 (ip), vehicle: distilled water + Tween-80 105 % of control | endpoint: median survival time, dose: 12.5 mg/kg/injection, schedule: Q04DX003 (ip), vehicle: distilled water + Tween-80 100 % of control | endpoint: median survival time, dose: 25.0 mg/kg/injection, schedule: Q04DX003 (ip), vehicle: distilled water + Tween-80 97 % of control | endpoint: median survival time, dose: 50.0 mg/kg/injection, schedule: Q04DX003 (ip), vehicle: distilled water + Tween-80 96 % of control | endpoint: median survival time, dose: 100.0 mg/kg/injection, schedule: Q04DX003 (ip), vehicle: distilled water + Tween-80 94 % of control

Nc1cc(Cl)c2ncn(C3OC(CO)C(O)C3O)c2n1 (centres undefined)
inactive: endpoint: mean survival time, dose: 50.0 mg/kg/injection, schedule: Q01DX009 (ip), vehicle: saline 107 % of control | endpoint: mean survival time, dose: 100.0 mg/kg/injection, schedule: Q01DX009 (ip), vehicle: saline 104 % of control | endpoint: mean survival time, dose: 200.0 mg/kg/injection, schedule: Q01DX009 (ip), vehicle: saline 104 % of control

CC(=O)OC(c1ccccc1)C(OC(C)=O)c1ccccc1 (centres undefined)
inactive: endpoint: mean survival time, dose: 75.0 mg/kg/injection, schedule: Q01DX001 (ip), vehicle: other 104 % of control | endpoint: mean survival time, dose: 150.0 mg/kg/injection, schedule: Q01DX001 (ip), vehicle: other 102 % of control | endpoint: mean survival time, dose: 300.0 mg/kg/injection, schedule: Q01DX001 (ip), vehicle: other 88 % of control

CCOC(=O)C(=CNc1ccc(C)cn1)C(=O)OCC
inactive: [3] 93 % of control | [4] 92 % of control | [7] 98 % of control | [5] 95 % of control | [10] 97 % of control | [6] 103 % of control

COc1cc2c(cc1O)C(O)CNC2 (centres undefined)
inactive: endpoint: mean survival time, dose: 100.0 mg/kg/injection, schedule: Q01DX001 (ip), vehicle: saline 104 % of control | endpoint: mean survival time, dose: 200.0 mg/kg/injection, schedule: Q01DX001 (ip), vehicle: saline 93 % of control | endpoint: mean survival time, dose: 400.0 mg/kg/injection, schedule: Q01DX001 (ip), vehicle: saline 98 % of control

CN(C)C
inactive: [3] 103 % of control | [4] 102 % of control | [7] 101 % of control | [5] 105 % of control | [10] 105 % of control | [6] 104 % of control

CC(=O)Nc1ccc([N+](=O)[O-])c2ccccc12
inactive: endpoint: mean survival time, dose: 37.5 mg/kg/injection, schedule: Q04DX002 (ip), vehicle: saline with Tween-80 101 % of control | endpoint: mean survival time, dose: 75.0 mg/kg/injection, schedule: Q04DX002 (ip), vehicle: saline with Tween-80 101 % of control | endpoint: mean survival time, dose: 150.0 mg/kg/injection, schedule: Q04DX002 (ip), vehicle: saline with Tween-80 104 % of control

O=c1oc(-c2ccccc2)nc2c(Cl)ccc(Cl)c12
inactive: endpoint: mean survival time, dose: 90.0 mg/kg/injection, schedule: Q04DX003 (ip), vehicle: other 107 % of control | endpoint: mean survival time, dose: 135.0 mg/kg/injection, schedule: Q04DX003 (ip), vehicle: other 97 % of control | endpoint: mean survival time, dose: 200.0 mg/kg/injection, schedule: Q04DX003 (ip), vehicle: other 119 % of control | endpoint: mean survival time, dose: 300.0 mg/kg/injection, schedule: Q04DX003 (ip), vehicle: other 102 % of control

O=C(Nc1ccccc1)c1ccc(S(=O)(=O)F)cc1
inactive: [3] 101 % of control | [7] 106 % of control | [10] 106 % of control

CCCCn1c(Cc2ccccc2)nc2c1C(=O)c1ccccc1C2=O
inactive: endpoint: mean survival time, dose: 100.0 mg/kg/injection, schedule: Q04DX003 (ip), vehicle: saline 103 % of control | endpoint: mean survival time, dose: 200.0 mg/kg/injection, schedule: Q04DX003 (ip), vehicle: saline 101 % of control | endpoint: mean survival time, dose: 400.0 mg/kg/injection, schedule: Q04DX003 (ip), vehicle: saline 98 % of control

CCC[CH2][Sn]1([CH2]CCC)[O]C2C(CO)OC(n3c(Br)c(C#N)c4c(N)ncnc43)C2[O]1 (centres undefined)
inactive: endpoint: mean survival time, dose: 1.56 mg/kg/injection, schedule: Q01DX005 (ip), vehicle: distilled water + Tween-80 93 % of control | endpoint: mean survival time, dose: 3.13 mg/kg/injection, schedule: Q01DX005 (ip), vehicle: distilled water + Tween-80 98 % of control

OCCN(Cc1ccccc1)C(c1ccccc1)c1ccccc1
inactive: endpoint: mean survival time, dose: 100.0 mg/kg/injection, schedule: Q04DX003 (ip), vehicle: Klucel (hydroxypropylcellulose) (HPC) 91 % of control | endpoint: mean survival time, dose: 200.0 mg/kg/injection, schedule: Q04DX003 (ip), vehicle: Klucel (hydroxypropylcellulose) (HPC) 97 % of control | endpoint: mean survival time, dose: 400.0 mg/kg/injection, schedule: Q04DX003 (ip), vehicle: Klucel (hydroxypropylcellulose) (HPC) 97 % of control
